Data taken from article PMC11253539, “Structural and mechanistic insights into the transport of aristolochic acids and their active metabolites by human serum albumin” (The Journal of Biological Chemistry, 2024).
“And” between values parts separate entries of the source, which are not always exact repeats. Equal values may be shown once. Read-outs that look alike come from different tables or passages of the source.

Columns and labels:
[1] = biological target: T1, HSA (HSAA3782 and HSAA8763 mercaptoalbumins) (Homo sapiens, UniProt P02768); test: HSA Trp214 fluorescence quenching assay; assay type: binding
T1 construct: two human serum albumin (HSA) samples derived from pooled human plasma; purchased Sigma Aldrich A3782; A8763; host or cells: pooled human plasma
Description: Ligand-induced quenching of the intrinsic HSA fluorescence has been assessed by monitoring a single Trp^214 residue located within the IIA binding cavity to derive equilibrium dissociation constants (KD) for numerous endogenous and exogenous molecules including aristolochic acids ([51], [52]). […] Addressing this deficiency, we prepared mercaptoalbumins from HSAA3782 and HSAA8763, consisting of fatty acid-free and limited fatty acid-containing HSA, respectively. We subsequently employed these well-defined HSA samples to conduct comparative fluorescence quenching studies in the presence of AA-I, AA-II, and their respective metabolites while concurrently evaluating the impact of fatty acid content on relative binding affinities.
Equilibrium fluorescence spectra of monomeric HSA samples were collected on an ISS PC1 photon counting spectrophotometer. An excitation wavelength of 295 nm was employed for HSAA3782 and HSAA8763 to selectively monitor tryptophan and avoid contributions of tyrosine residues. The excitation and emission slits were set to 1 nm and 2 nm, respectively. Prior to initiating the experiment, a stock solution of each AA compound (i.e., AA-I, AA-II, AL-I-NOH, AL-II-NOH, AL-I-NOAc. and AL-I-NOSO3) was prepared in DMSO by serial dilution to a 100-fold excess of their final concentration employed in the quenching experiments. HSA samples were diluted to 0.5, 1.0, and 2.5 μM in 10 mM KPi buffer (pH 7.5) and divided into 1 ml aliquots in Eppendorf tubes. A 10 μl aliquot of each AA compound was added to the HSA solutions to achieve a 0.2 to 50 μM concentration range in 1% DMSO. Each AA-HSA mixture was allowed to equilibrate at room temperature for at least 5 min, transferred to a 10 mm × 5 mm quartz cuvette, and emission spectrum recorded over the wavelength range of 310 to 460 nm employing a 2 nm step interval. Following each measurement, the quartz cuvette was cleaned, and the experiment repeated with the next AA:HSA ratio. […] Peak emission intensities at 340 nm were employed to construct fluorescence titration profiles for each AA compound.
Fluorescence titration profiles of the HSA quenching assays were generated using SigmaPlot 13.0. When applicable, the mean and standard deviations obtained from 3 to 5 independent measurements are reported. […] Invoking the SigmaPlot software suite, we applied the following binding model ([87]): F=Ffree−(Ffree−Fbound)∗[…] where F represents the fluorescence signal observed at each ligand concentration (Lt) and Pt is the total protein concentration. Upon fitting, one obtains values of Ffree and Fbound that correspond to the fluorescence of unbound and fully bound HSA, respectively. The number of binding sites and their respective affinities has been determined for AA-I and AA-II interactions with HSA via application of isothermal titration calorimetry as described in the following section.

[2] = biological target: T2, HSA (defatted HSAA3782) (Homo sapiens, UniProt P02768); test: Isothermal titration calorimetry of AA-HSA interactions; assay type: binding; conditions: for Ka (macroscopic association constant), Site 1 / Ka (macroscopic association constant), Site 2 / Ka (KA1), site 1 / Ka (KA2), site 2 / Kd: two-site model; for Ka (KA1), site 1: site 1, 25 °C; for Ka (KA2), site 2: site 2, 25 °C; for ΔG°, Site 1 / ΔG°, Site 2: ΔG° = −RTlnKa, T = 298 K
T2 construct: two human serum albumin (HSA) samples derived from pooled human plasma; purchased Sigma Aldrich A3782; host or cells: pooled human plasma
Description: We have assessed the binding affinities of AA-I and AA-II for HSAA3782 by conducting a series of ITC experiments. […] An initial analysis of the AA-HSA binding isotherms using conventional fitting programs provides a reasonable estimate for the binding stoichiometry of two AA ligands per HSA molecule. […] Given the challenges associated with baseline assignments, we subsequently employed the NITPIC/SEDPHAT/GUSSI software suite ([60]) to ensure unambiguous analysis of the binding isotherms. Singular value decomposition yields baseline-corrected association data that are analyzed via a two-site binding model to derive macroscopic affinities for AA-HSA interactions in accordance with the following relation: A+B+B↔[AB]+B↔ABB where A represents the HSA macromolecule and B represents ligand AA-I or AA-II. This binding model implies that both sites are occupied with all possible ligation states coexisting in equilibrium.
Binding parameters for the association of defatted HSAA3782 with AA-I and AA-II were determined calorimetrically employing a MicroCal VP-ITC instrument (Malvern Panalytical). Protein stock solutions (0.5–1.5 mM) were prepared by BME reduction to disrupt potential CyS34-CyS34 dimers and dialyzed against three 500 ml exchanges of 10 mM sodium phosphate buffer (pH 7.5). Aliquots of the respective AA ligand stocks were dissolved in protein dialysate and the final DMSO concentration adjusted to 2%. The HSA standard was prepared by diluting an appropriate aliquot in dialysate containing 2% DMSO to match the syringe solution contents. Each ITC experiment consists of thirty consecutive 10.0 μl injections during which the reaction heat is monitored and integrated over a 5-min interval under constant stirring conditions. The experimental protocol has been designed to ensure that there is at least a 15-fold excess of either AA-I or AA-II (75–200 μM) in the titration syringe relative to the initial HSA concentration (5–10 μM) in the reaction cell.
Binding isotherms acquired at 25 °C were generated by recording the integrated reaction heats normalized for AA concentration versus ligand:protein ratio. […] We subsequently applied the NITPIC/SEDPHAT/GUSSI suite of software programs ([60], [88]) to ensure unbiased baseline assignments and peak integrations that facilitated selection of an appropriate binding model to characterize this protein-ligand system. The SEDPHAT program affords significant flexibility by allowing implicit and explicit uncertainty corrections that facilitate assessment of incompetent binding species in the protein and/or ligand. A nonlinear least squares analysis of the resultant profiles invoking a symmetric two-site binding model yields an optimal fit of the isotherms and requisite macroscopic parameters for AA-HSA interactions.

[3] = system: HSA; design: method as in PMID 16413837; conditions: numerous binding sites; cited from earlier work
[4] = ITC, Site 1, 10 mM NaPO4 pH 7.5, 25 °C
[5] = ITC, Site 2, 10 mM NaPO4 pH 7.5, 25 °C
[6] = fatty acid-containing HSA, mean ± SD of 3 to 5 measurements, 10 mM KPi pH 7.5, read-out: KDapp (HSAA8763)
[7] = fatty acid-free HSA, mean ± SD of 3 to 5 measurements, 10 mM KPi pH 7.5, read-out: KDapp (HSAA3782)

T2 sequence (P02768 25-609): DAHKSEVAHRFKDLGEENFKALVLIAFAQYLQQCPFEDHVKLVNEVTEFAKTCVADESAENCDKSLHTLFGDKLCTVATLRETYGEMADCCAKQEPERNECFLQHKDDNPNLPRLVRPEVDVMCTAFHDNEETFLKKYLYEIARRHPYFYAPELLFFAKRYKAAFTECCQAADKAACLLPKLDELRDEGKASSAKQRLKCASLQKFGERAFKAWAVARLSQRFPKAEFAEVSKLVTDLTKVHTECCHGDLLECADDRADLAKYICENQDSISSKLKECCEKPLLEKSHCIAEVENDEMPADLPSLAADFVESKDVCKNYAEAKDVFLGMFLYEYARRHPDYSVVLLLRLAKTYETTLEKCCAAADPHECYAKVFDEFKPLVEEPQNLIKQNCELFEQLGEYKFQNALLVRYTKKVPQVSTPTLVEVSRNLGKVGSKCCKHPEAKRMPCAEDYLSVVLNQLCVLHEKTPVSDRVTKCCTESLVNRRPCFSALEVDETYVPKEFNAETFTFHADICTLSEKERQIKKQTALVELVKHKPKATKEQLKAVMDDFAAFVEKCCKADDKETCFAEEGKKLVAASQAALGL
T1 sequence (P02768 25-609): as above

SMILES | Ka (macroscopic association constant), Site 1 [2, 4] | Ka (macroscopic association constant), Site 2 [2, 5] | Ka (KA1), site 1 ([2]; ITC) [M⁻¹] | Ka (KA2), site 2 ([2]; ITC) [M⁻¹] | ΔG°, Site 1 [2] [kcal/mol] | ΔG°, Site 2 [2] [kcal/mol] | Kd [1, 6] [nM] | Kd [1, 7] [nM] | also measured
COc1cccc2c1cc([N+](=O)[O-])c1c(C(=O)O)cc3c(c12)OCO3 [AA-I, aristolochic acid I] | 1.5 10^6 M^−1 and 1.50 ± 0.18 10^6 M^−1 | 0.5 10^6 M^−1 and 0.54 ± 0.04 10^6 M^−1 | 1.5e+06 | 540000 | -8.41 ± 1.00 | -7.82 ± 0.58 | – | – | Kd [1]: 430 ± 30 nM; Kd ([2]; KD, Site 1, ITC, Site 1, 10 mM NaPO4 pH 7.5, 25 °C): 690 ± 80 nM; Kd ([2]; KD, Site 2, ITC, Site 2, 10 mM NaPO4 pH 7.5, 25 °C): 1870 ± 120 nM
O=C(O)c1cc2c(c3c1c([N+](=O)[O-])cc1ccccc13)OCO2 [AA-II, aristolochic acid II] | 0.84 ± 0.07 10^6 M^−1 | 0.90 ± 0.10 10^6 M^−1 | 840000 | 900000 | -8.10 ± 0.67 | -8.12 ± 0.82 | 360 ± 30 | 630 ± 100 | association constant, first site ([2]; ITC, first of two sites, as given in abstract): 8.4 10^5 M^−1; association constant, second site ([2]; ITC, second of two sites, as given in abstract): 9.0 10^5 M^−1; Kd ([2]; ITC, Site 1, 10 mM NaPO4 pH 7.5, 25 °C, read-out: KD, Site 1): 1190 ± 190 nM; Kd ([2]; ITC, Site 2, 10 mM NaPO4 pH 7.5, 25 °C, read-out: KD, Site 2): 1110 ± 110 nM
COc1cccc2c1cc1c3c(cc4c(c32)OCO4)C(=O)N1OC(C)=O [AL-I-NOAc] | – | – | – | – | – | – | 590 ± 70 | 670 ± 130 | –
COc1cccc2c1cc1c3c(cc4c(c32)OCO4)C(=O)N1O [AL-I-NOH, N-hydroxyaristolactam I] | – | – | – | – | – | – | 740 ± 60 | 650 ± 60 | –
CCCCCCCCCCCCCC(=O)O [myristic acid] | – | – | – | – | – | – | – | – | affinities for HSA binding sites [3]: 10^4 to 10^7 M^−1
